Measurements from publication PMC4552745, “Novel Gallate Triphenylphosphonium Derivatives with Potent Antichagasic Activity” (PLoS ONE, 2015).

Legend:
[1] = test system: T. cruzi trypomastigotes (Y strain); format: cell-based; details: for markers of cell death (phosphatidylserine exposure and propidium iodide permeabilization): 1 μM, 24 hours; for number of viable cells (without annexin-V or PI positivity): 24 hours, 0.1, 0.5 or 1 μM, Fig 2B
Description: For these assays, 10^7 trypomastigotes (Y strain) were exposed to […] for 24 h in RPMI at 37°C and 5% CO2. The cells were then washed in phosphate-buffered saline (PBS), resuspended, and incubated with propidium iodide (PI) and Annexin-V labeled with Alexa Fluor 488. The incubation was performed using Alexa Fluor 488 Annexin V/Dead Cell Apoptosis Kit (Molecular Probes, USA) following the manufacturer’s instructions. The fluorescence of the samples was measured using a FACSAria-III flow cytometer (BD biosciences, USA) with 530/30 and 630/22 filters to detect Annexin-V and PI, respectively. For each sample, 5,000 events were recorded, and the data were analyzed using FACSDiva 6.1 software.

[2] = test system: T. cruzi trypomastigotes mitochondrial transmembrane potential (ΔΨm); test: Mitochondrial membrane potential assessment by JC-1; format: cell-based, Trypanosoma cruzi; details: 1 μM, 2 hours, Fig 5A bottom panel; FCCP 100 μM positive control
Description: For the determination of mitochondrial membrane potential by JC-1, we adapted the method described by Cossariza and Savioli (2001). In total, 5 x 10^6 trypomastigotes were seeded in 24-well plates in 1 mL of RPMI medium without FBS. The parasites were exposed to 0.1 or 1 μM of the different TPP^+ derivatives for 2 hours; alternatively, the parasites were exposed to 100 μM FCCP (Sigma Aldrich, USA) for 15 min as a positive control of the uncoupling of mitochondrial respiration. The cells were then washed with 500 μL of PBS and centrifuged at 1500 x g for 5 min. The parasites were then resuspended in 1 mL of PBS at 37°C. JC-1 (Molecular Probes, Applied Biosytems, USA) 1 mg/mL in DMSO was added at a final concentration of 5 μg/mL, and the mixtures were incubated for 15 min at 37°C in the dark. Next, the samples were centrifuged at 1500 x g for 5 min, and the supernatants, which contained unincorporated JC-1, were discarded. The pellet was suspended in PBS (1 mL), and fluorescence was measured using a FACSAria-III flow cytometer (BD Biosciences, USA). We used 488 nm as the excitation wavelength; the emission of JC-1 monomers was detected using the FITC filter (530/30), and the JC-1 aggregates were detected using the PE filter (585/42). Each measurement involved 5,000 events. The data were analyzed using FACSDiva 6.1 software.

[3] = test system: T. cruzi in infected RAW 264.7 cells; test: Parasite DNA load by real-time PCR in infected RAW cells; format: cell-based, Trypanosoma cruzi; details: for parasite's DNA load: 1 μM, qPCR, 48 hours; for parasite load (qPCR): infected RAW cells, 48 hours after treatment, Fig 4
Text: DNA from infected RAW cells (murine macrophages, ATCC number: TIB-71) was isolated using Wizard Genomic DNA Purification Kit (Promega, USA) following the manufacturer’s instructions. DNA was quantified through […] absorbance measurements using a Varioskan spectrophotometer (Thermo Scientific, USA). To evaluate the parasite DNA load, we used a TaqMan-Duplex system, as described previously. To amplify an 84-bp T. cruzi satellite DNA sequence, we used the following primers: TcSt 4-Fw (5’-[…]-3’) and TcSt 1-Rev (5’-[…]-3’) and the TcSt-1 probe (5’-FAM-[…]-BHQ-1-3’). As an endogenous control, we used the Mus-F (5’-[…]-3’) and Mus-R (5’-[…]-3’) primers coupled with the MM-1 probe (5’-HEX-AAAGCATCTGCCTCCG-BHQ-1-3’) to amplify a 67-bp Mus musculus GAPDH sequence. The primers and probes were designed using Primer Express 3.0 Software (Applied Biosystems, USA) and manufactured by Integrated DNA Technologies (Coralville, IA, USA). The PCR reactions were performed using an ABI7300 real-time thermocycler (Applied Biosystems, USA). […] ROX was used as a reference dye. For both TaqMan assays, the thermal cycle consisted of a polymerase activation step carried out at 95°C for 10 min (one cycle) and a two-step amplification phase: 95°C for 15 s and 55°C for 45 s (40 cycles). Fluorescence was measured at the end of each amplification cycle. The data were analyzed using 7300 System SDS software with the SDS relative quantitation plug-in (Applied Biosystems, USA). All of the data were analyzed by the 2^-∆∆CT method, comparing the CTs of the T. cruzi gene versus that of GAPDH as well as comparing all of the samples with the controls. The parasite load is expressed as the relative DNA load compared with the controls.

[4] = test system: T. cruzi trypomastigotes (Y strain); test: MTT reduction viability assay on isolated trypomastigotes; format: cell-based, Trypanosoma cruzi; details: for EC50: Trypanosoma cruzi, Y strain, 24 hours exposure, MTT assay, mean ± SD, read-out: EC50 T. cruzi trypomastigote; for Selectivity index (VERO/T. cruzi): ratio of EC50 VERO cells to EC50 T. cruzi trypomastigote
Description: Trypomastigotes (Y strain, DTU T. cruzi II) were obtained from infected VERO cells (Chlorocebus sabaeus kidney fibroblasts obtained from ATCC, ATCC number: CCL-81). The cells were exposed to trypomastigotes (Y strain) at a 3:1 density (trypomastigote:cell). The trypomastigotes were allowed to infect the cells for 24 h, and the supernatant was then extracted. The trypomastigotes were released from VERO cells at 4 days after infection. The parasites were harvested and collected for viability assays. The effect of the drugs on parasite viability was evaluated using the tetrazolium salt (MTT) reduction assay. […] Alternatively, VERO cells attached to the surface of 96-well plates were washed and incubated with MTT (5 mg/mL). After incubation for 4 h at 37°C, the generated formazan crystals were dissolved with 100 μL of 10% (w/v) sodium dodecyl sulfate (SDS) in 0.01 M HCl. The plates were then incubated overnight at 37°C, and the optical density (OD) was determined using a microplate reader (Labsystems Multiskan MS, Finland) at 570 nm. Under these conditions, the OD is directly proportional to the number of viable cells in each well [33, 34]. All of the experiments were performed at least three times. […] The data from each experiment were plotted using the formazan absorbance versus the log of the concentration, and the plot was fitted to the dose-response (four-parameters) equation using the software Graph Pad Prism V5.0, obtaining the EC50 value per drug and per experiment. The data are expressed as the mean ± DS of the EC50s obtained from each experiment.

[5] = test system: T. cruzi intracellular amastigotes in VERO cells; test: DAPI staining and intracellular amastigote quantification in infected VERO cells; format: cell-based, Trypanosoma cruzi; details: 1 μM, 48 hours, control 12.9 ± 2.2
Description: VERO (Chlorocebus sabaeus kidney fibroblasts, ATCC number: CCL-81) cells were exposed to T. cruzi trypomastigotes (Y strain) at a 5:1 ratio (trypomastigotes:cells) for 24 hours. The cells were then washed and treated with different compounds, at 0.1 and 1 μM, for 48 hours. The cells were washed and fixed in cold methanol (70%) overnight; the fixed cells were washed, and 1 mL of PBS (pH 7.4) was added. The DNA was stained with DAPI (NucBlue, Molecular Probes, USA) following the manufacturer’s instructions. The cells were photographed using a Nikon Eclipse 400 fluorescence microscope at 358 nm (excitation) and 461 nm (emission). Five images were obtained per well, and each picture was analyzed by two independent researchers.

SMILES: O=C(OCCCCCCCCCC[P+](c1ccccc1)(c1ccccc1)c1ccccc1)c1cc(O)c(O)c(O)c1.[Br-] [TPP^+-C10, triphenyl(10-((3,4,5-trihydroxybenzoyl)oxy)-decyl) phosphonium bromide]
- markers of cell death (phosphatidylserine exposure and propidium iodide permeabilization) [1]: induced markers of cell death
- number of viable cells (without annexin-V or PI positivity) [1]: significant decrease in the number of viable cells at concentrations of 0.5 and 1 μM
- JC-1 red fluorescence (aggregates) [2]: induced mitochondrial changes, though to a lower extent than FCCP
- parasite's DNA load [3]: 10 % of control measurements
- parasite load (qPCR) [3]: reduced the parasite load in a concentration-dependent manner
- EC50 [4]: 1 ± 0.6 µM
- Selectivity index (VERO/T. cruzi) [4]: 11.3
- number of amastigotes per infected cell [5]: 2.5 ± 1.1

SMILES: O=C(OCCCCCCCCCCCC[P+](c1ccccc1)(c1ccccc1)c1ccccc1)c1cc(O)c(O)c(O)c1.[Br-] [TPP^+-C12, triphenyl(12-((3,4,5-trihydroxybenzoyl)oxy)-dodecyl) phosphonium bromide]
- markers of cell death (phosphatidylserine exposure and propidium iodide permeabilization) [1]: induced markers of cell death
- number of viable cells (without annexin-V or PI positivity) [1]: significant decrease in the number of viable cells at concentrations of 0.5 and 1 μM
- JC-1 red fluorescence (aggregates) [2]: induced mitochondrial changes, though to a lower extent than FCCP
- parasite's DNA load [3]: 13 % of control measurements
- parasite load (qPCR) [3]: reduced the parasite load in a concentration-dependent manner
- EC50 [4]: 1 ± 0.7 µM
- Selectivity index (VERO/T. cruzi) [4]: 10.9
- number of amastigotes per infected cell [5]: 2.0 ± 0.7
